Consider 4 substances from patent publication US7732633B2, “Arylsulfinate salts in photoinitiator systems for polymerization reactions” (3M Innovative Properties Company, priority 2003, dated 2010).

For data set [1] the following is noted: in N,N-dimethylformamide, 0.1 molar TBA PF6, versus Ag/0.01M AgNO3 reference electrode, peak current, first scan, 100 mV/sec.
Method: The oxidation potential can be determined using cyclic voltammetry. As described herein, the oxidation potential is measured by dissolving the compound of interest in a non-aqueous solvent (i.e., N,N-dimethylformamide) containing a supporting electrolyte (i.e., 0.1 moles/liter tetrabutylammonium hexafluorophosphate). The resulting solution is purged with an inert gas such as argon. A three-electrode configuration is used that includes a working electrode (i.e., a glassy carbon electrode), a reference electrode (i.e., a silver wire in a 0.01 moles/liter of silver nitrate dissolved in acetonitrile), and a counter electrode (i.e., a platinum wire). The oxidation or reduction potential is the voltage corresponding to the maximum current for the oxidation reaction.
The scan rates were 100 mV/sec.
The electrochemical measurements were made using a three-electrode configuration: a reference electrode, a working electrode, and a counter electrode. The reference electrode was a fritted electrode (obtained from Sargent Welch, Buffalo Grove, Ill.) that was filled with 0.01M AgNO3 in acetonitrile and fitted with a silver wire 1 mm in diameter by approximately 19 cm in length. The counter electrode was a platinum wire 1.0 mm in diameter and approximately 16 cm long (overall length) formed into a coil having a coil diameter of approximately 10 mm and a coil length of about 7.5 cm. The working electrode was a glassy carbon electrode, approximately 3.5 mm in diameter (obtained from BAS, Inc., West Lafayette, Ind.). The glassy carbon electrode was polished using first a 3.0 micron aluminum oxide powder/deionized water slurry, then a 0.3 micron alpha alumina powder/deionized water slurry. The polishing powders were obtained from Buehler LTD, Evanston, Ill.
The cell was a 50 mL four neck round bottom flask. Each electrode was sealed in the flask using the appropriately sized rubber septum. The fourth inlet was used to introduce an argon purge to remove oxygen and keep atmospheric moisture out of the cell.
The supporting electrolyte was tetrabutylammonium hexafluorophosphate (TBA PF6) (obtained from Southwestern Analytical Chemicals, Inc., Austin, Tex.). The TBA PF6 was dried overnight in a vacuum oven at 80-90° C. before each experiment. The solvent was N,N-dimethylformamide (DMF), and it was used as received without further purification. The solvent was transferred to the electrochemical cell via syringe under an argon atmosphere to minimize atmospheric moisture uptake.
Electrochemical measurements were made by first preparing a 0.1 molar solution of TBA PF6 in DMF. […] The potential was determined at the peak current for the oxidation or reduction reaction on the first scan.
For data set [2] the following is noted: time to oxidize 50 weight percent of the compound at room temperature; solutions in acetonitrile-d3; pseudo-first order kinetics. On the procedure: The oxidative stability of the exemplary substituted arylsulfinates was determined by proton nuclear magnetic resonance spectroscopy. Spectra of solutions of the compounds in acetonitrile-d3 were obtained at regular intervals. The resonances of the alkyl groups in the cations were used as an internal standard to assess the oxidation of the anion.

With “tetrabutylammonium 4-chlorobenzenesulfinate [Example 1]”, the Eox in data set [1] was 0.09 V.

For the substance “tetrabutylammonium 4-cyanobenzenesulfinate [Example 4]”, the “t1/2” value in data set [2] is on record as greater than 300 days. This substance came in with an Eox in data set [1] of 0.15 V.

“tetrabutylammonium 4-ethoxycarbonylbenzenesulfinate [Example 2]” registered an Eox in data set [1] of 0.11 V.

In turn, “tetrabutylammonium 4-trifluoromethylbenzenesulfinate [Example 3]” displayed an Eox in data set [1] of 0.18 V.
